The test system of data set [1] is IL-8 production in U937 cells infected with influenza A virus A/PuertoRico/8/1934. The experiment in a line: IL-8 production in influenza-infected U937 cells (AlphaLISA). The data set is classed as cell-based, human. Particulars: read-out: EC50 IL-8. A general note: Bead proximity is the source of the signal in Alpha formats.
For data set [2], the system named is MCP-1 production in U937 cells infected with influenza A virus A/PuertoRico/8/1934. The experiment in a line: MCP-1 production in influenza-infected U937 cells (AlphaLISA). The data set is classed as cell-based, human. Conditions: read-out: EC50 MCP-1.
The test system of data set [3] is IP-10 production in U937 cells infected with influenza A virus A/PuertoRico/8/1934. The experiment in a line: cells. Type of data set: cell-based.
Data set [4] in a line: in vitro. Particulars: human.
For data set [5], the system named is U937 cells.
In data set [6] the test system is PR8 strain of influenza virus. The experiment in a line: In vitro antiviral assays in U937, A549 cells and murine PCLS. Type of data set: cell-based.
For data set [7] the following is noted: cited from earlier work.
In data set [8] the test system is influenza A virus (A/PR/8/34). The experiment in a line: Viral titers in BALF of infected mice (TCID50 assay using MDCK cells). Type of data set: in vivo, BALB/c mice.
In data set [9] the test system is MCP-1, KC, IP-10 and IL-6 production in PCLS infected with influenza. The experiment in a line: Cytokine production in influenza-infected murine precision-cut lung slices (PCLS). The data set is classed as cell-based, mouse.
The subject of data set [10] is pro-inflammatory cytokines in BALF. On the set-up: species or system BALB/c mice. Particulars: mouse, in vivo.
Data set [11] has as its system influenza A virus (A/PR/8/34). The experiment in a line: Inflammatory cell infiltration in lungs/BALF of infected mice (histology, flow cytometry). Particulars: 15 mg/kg oral from day 3. Type of data set: in vivo, BALB/c mice. How it is done: BALF samples were washed with FACS buffer (10% BSA in PBS). Red blood cells were lysed using ammonium chloride and […] were seeded into a 96-well U-bottom plate. Cells were pre-incubated with anti-FcgRIII/II (Fc block) in FACS buffer before a 30-min incubation with the following fluorochrome-labeled antibodies (Biolegend): PE-Cy7-conjugated Ly6C (clone HK1.4, dilution 1:200), PE-conjugated CD11b (clone M1/70, dilution 1:200), APC-conjugated Ly6G (clone 1A8, dilution 1:200), and FITC-conjugated CD11c (clone N418, dilution 1:100). Cells were washed with phosphate-buffered saline twice and counterstained with 7AAD (Biolegend) to differentiate apoptotic and dead cells and then analyzed using a LSR Fortessa (Becton Dickinson).
Whole lungs were perfused with 10% neutral buffered formaldehyde in situ. Tissues were then fixed overnight in 10% neutral buffered formaldehyde, embedded in paraffin, and sectioned. Lung specimens were stained with hematoxylin and eosin and then subjected to gross and microscopic pathologic analysis.
Mice were infected as described in Figure 2. […] (A) Hematoxylin & eosin-stained mouse lung sections (scale bar 200 μm) harvested at day 7 post-infection. (B) BALFs were collected from placebo and ponatinib-treated mice (n = 3 per group at each time point) starting day 3 post-infection to monitor total cell counts (mean ± SEM) on days 5 and 7 post-infection. The data are representative of at least three independent experiments.*p < 0.05; **p < 0.01.

Data set [12] concerns influenza A virus (A/PR/8/34). The experiment in a line: Mouse lethal influenza model: survival and body weight. Type of data set: in vivo, BALB/c mice. Particulars: for Body weight loss: started 2 h after infection; for Survival rate: started 2 h after infection with 500 TCID50, monitored to day 20.
The test system of data set [13] is IFN-α. The experiment in a line: IFN-α levels in influenza virus-infected U937 cells. The data set is classed as cell-based, human.
The subject of data set [14] is phospho-p38. Type of data set: cell-based, human.
[15] abbreviates: Homo sapiens, U-937, PR8 MOI = 0.1, 48 h.
The mark [16] stands for this setting: U937 cells, PR8 MOI = 0.1, 48 h.

Like-named read-outs stand apart in the source and are kept apart here. Some results are limits rather than exact numbers.

In the case of `Cc1ccc2nc(NCCN)c3ncc(C)n3c2c1` [BMS-345541], the EC50 came to 11.7 µM in data set [1] (Homo sapiens, U-937, 48 h); 3.6 µM in data set [2] (Homo sapiens, U-937, 48 h); 4.6 µM in [3] (setting [15]). Also, in data set [4], the CC50 is 3.9 µM.
The like results for `Cc1cn(-c2cc(NC(=O)c3ccc(C)c(Nc4nccc(-c5cccnc5)n4)c3)cc(C(F)(F)F)c2)cn1` [Nilotinib] were, in that order, 0.4 µM, 1.5 µM, 1.1 µM and 5.4 µM.
Consider `CC(C)(C)n1nc(-c2ccc(Cl)cc2)c2c(N)ncnc21` [PP2], for which the 50% effective concentration (EC50) in data set [1] (setting [16]) is over 100 µM; in data set [2] (setting [16]), 10.4 µM; in data set [3] (PR8 MOI = 0.1, 48 h) it was 3.3 µM. In [5], the CC50 was determined as 40.3 µM.
For `Cc1ccc(C(=O)Nc2ccc(CN3CCN(C)CC3)c(C(F)(F)F)c2)cc1C#Cc1cnc2cccnn12` [Ponatinib], the EC50 in [1] (Homo sapiens, U-937, 48 h) turned out to be 0.3 µM. For the same compound, the “Replication of PR8 influenza virus in vitro” value in data set [6] is “did not inhibit the replication”. Further, the “Median time to first onset of pancreatitis” value in data set [7] (clinical trials) was 14 days. In addition, the “Median time to initial onset of arterial occlusive events” value in data set [7] (patients, long-term treatment) was 13.4 months. Also, the EC50 in [2] (Homo sapiens, U-937, 48 h) turned out to be 0.4 µM. Also, in data set [8] (15 mg/kg oral from day 0 (simultaneously with infection)), the “Viral titers in BALF vs placebo” value is “significantly higher at day 3 and slightly higher at day 7”. The “Virus titers in BALF vs placebo” value in data set [8] (15 mg/kg oral from day 3, days 5 and 7 post-infection) was “no difference”. Further, the “MCP-1, KC, IP-10 and IL-6 productions in infected PCLS” value in [9] is reported as “dose-dependently”. In addition, in data set [10], the “Concentrations of IL-6, IL-10, MCP-1, Eotaxin, IL-12 (p40) and MIP-1β in BALF” value is “not affected”; the “Expression levels of cytokines and chemokines in BALF (of 17 increased by infection)” value was 14 cytokines and chemokines were attenuated; the “IFN-α levels in BALF vs placebo” value is “higher on day 3 and lower on day 5 post-infection”; the “Inhibition of cytokines in BALF except IL-6 and CCL-5, late phase” value is given as “minor”. Moreover, in [10], the “Inhibition of cytokines in BALF, early phase” value was “no cytokines were inhibited”; the “Levels of Eotaxin, G-CSF, MCP-1, IL-10, TNF-α and IP-10 in BALF” value is on record as “elevated”; the “Levels of type I IFNs in BALF and serum” value was “reduce the levels of type I IFNs”; the “Production of cytokines and chemokines in BALF” value is 8 cytokines and chemokines was reduced. Also, in [11] (day 7 post-infection, vs placebo), the “Inflammatory infiltrates in the lungs (histology)” value was “fewer inflammatory infiltrates”. In addition, in data set [11] (days 5 and 7 post-infection), the “Infiltration of neutrophils in BALF” value is recorded as “greatly reduced” and the “Monocyte infiltration in BALF” value is reported as “not affected”. In addition, in data set [12] (5 mg/kg/d oral), the Body weight loss entry is “improvement in body weight loss decreased significantly compared to the middle dose group” and the Survival rate was determined as 20%. Further, in [12] (15 mg/kg oral, started on days 1, 2, 3 or 4 post-infection until day 6), the “Body weight loss, delayed administration” value was “slowed down significantly”. For the same compound, in data set [12] (15 mg/kg oral, started on days 3 and 4 post-infection until day 6), the “Survival rate, delayed administration” value is “higher survival rates than those treated starting on days 1 and 2”. The same compound gave a Survival rate in data set [12] (15 mg/kg/d oral) of 50%. The Body weight loss entry in [12] (15 mg/kg/d oral, days 3 to 5) is recorded as “least decline in body weight”. Further, in data set [12] (25 mg/kg/d oral), the Body weight loss result is “improvement of body weight loss was not observed at all” and the Survival rate turned out to be 30%. The “Levels of IFN-α” value in data set [13] was “downregulate”. In addition, the “Phosphorylation of p38” value in data set [14] is reported as “downregulated”.
For the compound `CNC(=O)c1cc(Oc2ccc(NC(=O)Nc3ccc(Cl)c(C(F)(F)F)c3)cc2)ccn1` [Sorafenib], the EC50 in data set [1] (Homo sapiens, U-937, 48 h) came out at 0.7 µM; in data set [2] (Homo sapiens, U-937, 48 h), 5.8 µM; in [3] (setting [15]), 3.7 µM. The compound further came in with a CC50 in data set [4] of 20.7 µM.
Take `Nc1cccc(-c2cc3c(Oc4cccc(O)c4)ncnc3[nH]2)c1` [TWS119]: the half-maximal effective concentration (EC50) in data set [1] (setting [16]) stood at 9 µM; in [2] (setting [16]) it was 8 µM; in data set [3] (PR8 MOI = 0.1, 48 h) it was 8.5 µM. In data set [5], this compound yielded a CC50 of 5.4 µM.

Usually EC50 stands for the concentration needed to bring the measured effect to its halfway point.

The values are drawn from article PMC6598400 (Frontiers in Immunology, 2019).
